The values below come from PubChem BioAssay AID248 (DTP/NCI, 2004).

The structures appear in SMILES notation. Values joined by “and” are separate entries in the source; they are usually repeats but may differ in a detail not shown here. Equal values may be shown once. Toxic doses and inconclusive results are not listed.

This test has as its system L1210 leukemia ip in BDF1 mice, survival T/C. Put plainly: NCI In Vivo Anticancer Drug Screen. Data for tumor model L1210 Leukemia (intraperitoneal) in B6D2F1 (BDF1) mice. As to conditions: endpoint: mean survival time, higher = longer survival. In outline: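 Survival endpoint. Drug-treated group vs vehicle group, expressed as T divided by C. Tumor passaged by transplantation.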

The mark [1] stands for this setting: dose: 100.0 mg/kg/injection, schedule: Q04DX003 (ip), vehicle: saline with Tween-80.
The mark [2] stands for this setting: dose: 200.0 mg/kg/injection, schedule: Q04DX003 (ip), vehicle: saline with Tween-80.
The mark [3] stands for this setting: dose: 50.0 mg/kg/injection, schedule: Q01DX001 (ip), vehicle: saline.
Setting [4] is: dose: 100.0 mg/kg/injection, schedule: Q01DX001 (ip), vehicle: saline.
[5] abbreviates: dose: 200.0 mg/kg/injection, schedule: Q01DX001 (ip), vehicle: saline.
[6] abbreviates: dose: 25.0 mg/kg/injection, schedule: Q01DX009 (ip), vehicle: Klucel (hydroxypropylcellulose) (HPC).
[7] abbreviates: dose: 50.0 mg/kg/injection, schedule: Q01DX009 (ip), vehicle: Klucel (hydroxypropylcellulose) (HPC).
Where [8] appears, read: dose: 100.0 mg/kg/injection, schedule: Q01DX009 (ip), vehicle: Klucel (hydroxypropylcellulose) (HPC).
Where [9] appears, read: dose: 400.0 mg/kg/injection, schedule: Q01DX001 (ip), vehicle: saline.
[10] abbreviates: dose: 100.0 mg/kg/injection, schedule: Q01DX001 (ip), vehicle: other.
[11] abbreviates: dose: 200.0 mg/kg/injection, schedule: Q01DX001 (ip), vehicle: other.
The mark [12] stands for this setting: dose: 400.0 mg/kg/injection, schedule: Q01DX001 (ip), vehicle: other.

With `Cc1ccc(N=NN(C)C)cc1`, the T/C runs as follows: (dose: 12.5 mg/kg/injection, schedule: Q01DX009 (ip), vehicle: saline with Tween-80) 97 % of control; (dose: 25.0 mg/kg/injection, schedule: Q01DX009 (ip), vehicle: saline with Tween-80) 103 % of control; (dose: 25.0 mg/kg/injection, schedule: Q04DX003 (ip), vehicle: saline with Tween-80) 105 % of control; (dose: 26.6 mg/kg/injection, schedule: Q01DX Z (ip), vehicle: methylcellulose (MC)) 104 % of control; (dose: 31.25 mg/kg/injection, schedule: Q01DX001 (ip), vehicle: saline with Tween-80) 108 % of control; (dose: 40.0 mg/kg/injection, schedule: Q01DX Z (ip), vehicle: methylcellulose (MC)) 118 % of control. For the same compound, the T/C was 103 % of control (dose: 50.0 mg/kg/injection, schedule: Q01DX009 (ip), vehicle: saline with Tween-80); 103 % of control (dose: 50.0 mg/kg/injection, schedule: Q04DX003 (ip), vehicle: saline with Tween-80); 110 % of control (dose: 62.5 mg/kg/injection, schedule: Q01DX001 (ip), vehicle: saline with Tween-80); 165 % of control (dose: 90.0 mg/kg/injection, schedule: Q01DX Z (ip), vehicle: methylcellulose (MC)); 104 % of control (dose: 100.0 mg/kg/injection, schedule: Q01DX009 (ip), vehicle: saline with Tween-80); 110 % of control under setting [1]. Besides, the T/C (dose: 180.0 mg/kg/injection, schedule: Q01DX Z (ip), vehicle: carboxymethylcellulose (CMC)) was 102 % of control and the T/C under setting [2] is 109 % of control.

Turning to `OCC1OC(n2ccc3c(SCc4ccccc4)ncnc32)C(O)C1O` (stereo unspecified), the T/C is 110 % of control (dose: 25.0 mg/kg/injection, schedule: Q01DX001 (ip), vehicle: saline); 107 % of control under setting [3]; 98 % of control under setting [4]; 116 % of control under setting [5].

`CCc1ccc(NC(=O)c2ccco2)cc1`: the T/C reads like this: under setting [6], 98 % of control; under setting [7], 96 % of control; under setting [8], 98 % of control.

With `CCOC(=O)C1CC(=O)C(C(=O)OCC)CC1=O` (stereo unspecified), the T/C reads like this: under setting [4], 101 % of control; under setting [5], 95 % of control; under setting [9], 95 % of control.

In the case of `Cc1c2cnccc2c(C)c2c1c1ccccc1n2CCN(C)C`, the T/C is, setting by setting: (dose: 12.5 mg/kg/injection, schedule: Q04DX003 (ip), vehicle: saline) 105 % of control; (dose: 25.0 mg/kg/injection, schedule: Q04DX003 (ip), vehicle: saline) 97 % of control; (dose: 50.0 mg/kg/injection, schedule: Q04DX003 (ip), vehicle: saline) 102 % of control; (dose: 300.0 mg/kg/injection, schedule: Q04DX003 (ip), vehicle: saline) 113 % of control.

In the case of `CN(C)C1CC[N-]CC1.CN(C)C1CC[N-]CC1.[Cl][Pt+2][Cl]`, the T/C is 110 % of control (dose: 25.0 mg/kg/injection, schedule: Q01DX009 (ip), vehicle: saline); 110 % of control (dose: 50.0 mg/kg/injection, schedule: Q01DX009 (ip), vehicle: saline); 92 % of control (dose: 100.0 mg/kg/injection, schedule: Q04DX003 (ip), vehicle: saline).

For the compound `OCCCC(O)CO` (stereo unspecified), the T/C (dose: 222.0 mg/kg/injection, schedule: Q01DX Z (ip), vehicle: saline) was 98 % of control; the T/C (dose: 333.0 mg/kg/injection, schedule: Q01DX Z (ip), vehicle: saline) was 111 % of control; the T/C (dose: 500.0 mg/kg/injection, schedule: Q01DX Z (ip), vehicle: saline) was 102 % of control.

In the case of `CC(=O)OCC(OC(C)=O)C(OC(C)=O)C(C#N)OC(C)=O` (stereo unspecified), the T/C (dose: 12.5 mg/kg/injection, schedule: Q01DX009 (ip), vehicle: Klucel (hydroxypropylcellulose) (HPC)) was 95 % of control; the T/C (dose: 12.5 mg/kg/injection, schedule: Q04DX003 (ip), vehicle: Klucel (hydroxypropylcellulose) (HPC)) was 102 % of control; the T/C under setting [6] is 95 % of control; the T/C (dose: 25.0 mg/kg/injection, schedule: Q04DX003 (ip), vehicle: Klucel (hydroxypropylcellulose) (HPC)) is 96 % of control; the T/C under setting [7] was 102 % of control; the T/C (dose: 50.0 mg/kg/injection, schedule: Q04DX003 (ip), vehicle: Klucel (hydroxypropylcellulose) (HPC)) is 102 % of control. Besides, the T/C was 102 % of control under setting [1] and 102 % of control under setting [2].

For `C=C1C(=O)OC2C1C1CC1(C)C1CC(OC(C)=O)C(C)C21O` (stereo unspecified), the T/C is 103 % of control (dose: 50.0 mg/kg/injection, schedule: Q01DX001 (ip), vehicle: water); 92 % of control (dose: 100.0 mg/kg/injection, schedule: Q01DX001 (ip), vehicle: water); 103 % of control (dose: 200.0 mg/kg/injection, schedule: Q01DX001 (ip), vehicle: water).

As to `COc1ccc(NCc2ccccc2O)cc1`, the T/C was 95 % of control under setting [10], 87 % of control under setting [11] and 93 % of control under setting [12].

Consider `CCC[CH2][Sn]1([CH2]CCC)[O]OC(c2ccccc2)[O]1` (stereo unspecified), for which the T/C runs as follows: (dose: 0.5 mg/kg/injection, schedule: Q01DX009 (ip), vehicle: saline sonified) 102 % of control; (dose: 1.0 mg/kg/injection, schedule: Q01DX009 (ip), vehicle: saline sonified) 98 % of control; (dose: 2.0 mg/kg/injection, schedule: Q01DX009 (ip), vehicle: saline sonified) 104 % of control.

For `CCCOC(=O)C(C)(O)C(Cl)c1ccccc1` (stereo unspecified), the T/C is 96 % of control (dose: 37.5 mg/kg/injection, schedule: Q01DX009 (ip), vehicle: Klucel (hydroxypropylcellulose) (HPC)); 104 % of control under setting [3]; 108 % of control (dose: 58.0 mg/kg/injection, schedule: Q01DX001 (ip), vehicle: saline); 100 % of control (dose: 75.0 mg/kg/injection, schedule: Q01DX009 (ip), vehicle: Klucel (hydroxypropylcellulose) (HPC)); 107 % of control (dose: 88.0 mg/kg/injection, schedule: Q01DX001 (ip), vehicle: saline); 103 % of control under setting [4]. For the same compound, the T/C was 109 % of control and 114 % of control (dose: 100.0 mg/kg/injection, schedule: Q04DX002 (ip), vehicle: saline); 103 % of control (dose: 133.0 mg/kg/injection, schedule: Q01DX001 (ip), vehicle: saline); 104 % of control (dose: 150.0 mg/kg/injection, schedule: Q01DX009 (ip), vehicle: Klucel (hydroxypropylcellulose) (HPC)); 106 % of control and 109 % of control under setting [5]; 117 % of control (dose: 200.0 mg/kg/injection, schedule: Q04DX002 (ip), vehicle: saline); 98 % of control (dose: 300.0 mg/kg/injection, schedule: Q01DX001 (ip), vehicle: saline). The T/C is 104 % of control (dose: 300.0 mg/kg/injection, schedule: Q01DX009 (ip), vehicle: Klucel (hydroxypropylcellulose) (HPC)); 96 % of control under setting [9]; 105 % of control and 118 % of control (dose: 400.0 mg/kg/injection, schedule: Q04DX002 (ip), vehicle: saline).

Take `COC(=O)C1OC1c1cc(Br)ccc1OC` (stereo unspecified): the T/C runs as follows: under setting [4], 102 % of control; under setting [5], 103 % of control; under setting [9], 102 % of control.

With `O=C(NCc1ccccc1)Nc1ccccc1F`, the T/C was 110 % of control under setting [8]; 110 % of control (dose: 200.0 mg/kg/injection, schedule: Q01DX009 (ip), vehicle: Klucel (hydroxypropylcellulose) (HPC)); 104 % of control (dose: 400.0 mg/kg/injection, schedule: Q01DX009 (ip), vehicle: Klucel (hydroxypropylcellulose) (HPC)).

`CC(C)CNC(=O)c1cccc(-c2ccccc2C(=O)NCC(C)C)c1`: the T/C is, setting by setting: under setting [10], 91 % of control; under setting [11], 93 % of control; under setting [12], 96 % of control.

As for `CN(C)C(=O)Sc1cc(Cl)c(Cl)cc1Cl`, the T/C reads like this: (dose: 87.0 mg/kg/injection, schedule: Q01DX001 (ip), vehicle: Klucel (hydroxypropylcellulose) (HPC)) 92 % of control; (dose: 175.0 mg/kg/injection, schedule: Q01DX001 (ip), vehicle: Klucel (hydroxypropylcellulose) (HPC)) 92 % of control; (dose: 350.0 mg/kg/injection, schedule: Q01DX001 (ip), vehicle: Klucel (hydroxypropylcellulose) (HPC)) 94 % of control.

With `CN(C)c1ccc(/C=C(\C#N)c2ccc([N+](=O)[O-])cc2)c(Cl)c1`, the T/C was 91 % of control under setting [1]; 96 % of control under setting [2]; 96 % of control (dose: 400.0 mg/kg/injection, schedule: Q04DX003 (ip), vehicle: saline with Tween-80).
